The results in this text go back to patent publication US8609836B2, “4-aryl-2-anilino-pyrimidines” (Janssen Pharmaceutica NV, priority 2008, dated 2013).

Structures are written as SMILES.

The melting point is the temperature of the solid-liquid transition.

In data set [1] the target is PLK4 (h) (Homo sapiens, UniProt O00444). As to the kind of experiment: PLK-4 human kinase inhibition, scintillation proximity assay (SPA). The settings on record: read-out: PLK4 pIC50 (converted). Format: biochemical. In general terms: Scintillation proximity formats need no separation of bound from free tracer.
Sequence of PLK4 (h) (O00444 whole entry): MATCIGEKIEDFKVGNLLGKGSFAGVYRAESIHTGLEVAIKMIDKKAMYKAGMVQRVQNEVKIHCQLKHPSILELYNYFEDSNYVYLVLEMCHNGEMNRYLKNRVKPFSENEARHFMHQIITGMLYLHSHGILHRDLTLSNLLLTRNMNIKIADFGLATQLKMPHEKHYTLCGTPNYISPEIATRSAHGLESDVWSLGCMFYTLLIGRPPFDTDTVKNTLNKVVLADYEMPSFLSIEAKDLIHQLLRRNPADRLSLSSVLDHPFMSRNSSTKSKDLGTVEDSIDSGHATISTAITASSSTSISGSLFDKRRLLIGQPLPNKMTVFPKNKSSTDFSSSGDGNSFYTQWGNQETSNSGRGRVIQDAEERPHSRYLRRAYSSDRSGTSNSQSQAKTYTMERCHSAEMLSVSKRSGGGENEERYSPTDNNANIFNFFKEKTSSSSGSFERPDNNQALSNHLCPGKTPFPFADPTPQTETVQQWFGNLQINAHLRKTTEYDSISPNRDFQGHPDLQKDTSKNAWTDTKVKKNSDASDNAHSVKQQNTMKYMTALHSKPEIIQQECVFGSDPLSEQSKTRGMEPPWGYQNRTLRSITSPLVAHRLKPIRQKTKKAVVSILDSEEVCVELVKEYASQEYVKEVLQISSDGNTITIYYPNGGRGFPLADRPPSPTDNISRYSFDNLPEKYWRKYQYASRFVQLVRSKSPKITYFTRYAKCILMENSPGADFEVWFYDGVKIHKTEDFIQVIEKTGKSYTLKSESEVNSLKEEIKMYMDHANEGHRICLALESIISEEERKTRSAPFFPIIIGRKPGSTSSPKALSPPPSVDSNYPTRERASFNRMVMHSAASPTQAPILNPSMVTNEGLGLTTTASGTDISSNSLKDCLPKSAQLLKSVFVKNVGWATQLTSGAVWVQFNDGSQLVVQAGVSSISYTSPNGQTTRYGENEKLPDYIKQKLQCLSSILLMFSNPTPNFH
Data set [2] has as its target PLK1 T210D (h) (Homo sapiens, UniProt P53350, T210D). As to the kind of experiment: PLK1 human kinase inhibition, SPA. Format: biochemical. The conditions noted are these: read-out: PLK1 pIC50 (converted). A digest of the protocol: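 Radiometric SPA with PLK1 T210D (0.125 ng/ml) in 50 mM Hepes pH 8.0, 2 mM MnCl2, 1 mM DTT, 2 μM biotinylated peptide, 0.1 μM ATP plus 2 nM [γ-33P]ATP. 40 min at room temperature, EDTA stop. Phosphorylated substrate captured on streptavidin PVT beads, scintillation imaged.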

Data set [3] concerns U87-MG. In words: Cellular proliferation assay (Alamar blue), U87-MG. Format: cell-based. The settings on record: Homo sapiens, U-87 MG; 10% FCS; 72 hours with compound; Alamar blue 6 h; read-out: U87-MG (cellular proliferation assay, Table 4) (converted). A digest of the protocol:
(§1)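 Proliferation in 10% FCS over a 72 h compound treatment, read as viable cell number by Alamar blue fluorescence and calculated against untreated control cells. Dye time varied by line: 6 h U87-MG, 4 h HCT-116, 24 h A2780 and MDA-MB-231.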
(Alamar Blue is a resazurin reagent that responds to reducing activity.)

For data set [4], the system named is A2780. In words: Cellular proliferation assay (Alamar blue), A2780. The conditions noted are these: Homo sapiens, 10% FCS, 72 hours with compound, Alamar blue 24 h, read-out: A2780 (cellular proliferation assay, Table 4) (converted). In kind it is cell-based. In short, it runs like this: as §1
In data set [5] the test system is MDA-MB-231. In words: Cellular proliferation assay (Alamar blue), MDA-MB-231. In kind it is cell-based. The conditions noted are these: Homo sapiens, 10% FCS, 72 hours with compound, Alamar blue 24 h, read-out: MDA/MB231 (cellular proliferation assay, Table 4) (converted). In short, it runs like this: as §1

Sequence of PLK1 T210D (h) (P53350 whole entry T210D): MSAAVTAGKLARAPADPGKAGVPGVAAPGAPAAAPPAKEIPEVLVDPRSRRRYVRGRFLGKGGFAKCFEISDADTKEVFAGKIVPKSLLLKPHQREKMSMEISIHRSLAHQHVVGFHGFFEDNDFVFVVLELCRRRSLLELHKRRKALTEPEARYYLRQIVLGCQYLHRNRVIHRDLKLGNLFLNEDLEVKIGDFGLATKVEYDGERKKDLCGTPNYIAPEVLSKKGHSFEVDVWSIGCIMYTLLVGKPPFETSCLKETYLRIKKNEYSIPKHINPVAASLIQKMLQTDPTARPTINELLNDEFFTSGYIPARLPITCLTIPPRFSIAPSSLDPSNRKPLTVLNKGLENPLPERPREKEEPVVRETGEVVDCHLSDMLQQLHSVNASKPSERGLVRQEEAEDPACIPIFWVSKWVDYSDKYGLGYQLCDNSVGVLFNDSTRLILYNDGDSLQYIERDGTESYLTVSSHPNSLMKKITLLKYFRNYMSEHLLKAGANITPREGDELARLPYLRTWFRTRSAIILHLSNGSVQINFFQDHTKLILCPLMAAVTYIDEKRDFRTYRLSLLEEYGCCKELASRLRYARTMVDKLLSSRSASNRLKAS

`O=C1NCCCc2cc(ccn2)-c2ccnc(n2)Nc2cccc(c2)CN[C@H]1CO` [Compound 19]: the melting point was in the range of 253.6 to 254.9 °C. In data set [1], the IC50 was 1.2 µM. In addition, the IC50 in data set [2] was > 10 µM. Moreover, the IC50 in data set [3] is 1.07 µM. In addition, in data set [4], the IC50 was 1.45 µM. The IC50 in data set [5] was 6.17 µM.
`O=C1CN2CCN(CC2)Cc2cccc(c2)Nc2nccc(n2)-c2ccnc(c2)CCCN1` [Compound 21]: the melting point fell in the range of 243.2 to 244.3 °C. In addition, in data set [1], the IC50 is 4.27 µM. In addition, the IC50 in data set [2] is > 10 µM. Also, in data set [3], the IC50 was 2.82 µM. For the same molecule, the IC50 in data set [4] was 7.59 µM. In addition, the IC50 in data set [5] was > 10 µM.
Turning to `COc1ccc2cc1CN(C)CCNC(=O)C1CCN(CC1)Cc1cc(cc(NC(C)C)c1)Nc1nccc-2n1` [Compound 75], the IC50 in data set [1] is 3.09 µM; in data set [2] it was > 10 µM; in data set [3], 5.13 µM; in data set [4], > 10 µM; in data set [5] it was > 10 µM.
In the case of `CC(C)Nc1cc2cc(c1)Nc1nccc(n1)-c1ccc(cc1)CN(C)CCNC(=O)C1CCN(CC1)C2` [Compound 61], the IC50 in data set [1] is 0.724 µM; in data set [2] it was > 10 µM; in data set [3], 5.62 µM; in data set [4], 6.31 µM; in data set [5] it was > 10 µM.
`O=C1NCCCOc2cccc(c2)-c2ccnc(n2)Nc2ccc(N3CCOCC3)c(c2)CN[C@H]1Cc1ccccc1` [Compound 91]: the IC50 in data set [1] is 1.41 µM; in data set [2], > 10 µM; in data set [3] it was > 10 µM; in data set [4], > 10 µM; in data set [5], > 10 µM.
Take `CN(C)CCNCc1cc2cc(c1)Nc1nccc(n1)-c1cccc(c1)CNC(=O)[C@@H]1CCCN1C2` [Compound 31]: the IC50 in data set [1] was 0.166 µM; in data set [2] it was > 10 µM; in data set [3], 2.24 µM; in data set [4], 5.01 µM; in data set [5] it was 1.55 µM.
For `COc1ccc2cc1CN(C)CCNC(=O)CN1CCN(CC1)Cc1cc(cc(N3CCOCC3)c1)Nc1nccc-2n1` [Compound 145], in that order: 4.37 µM, > 10 µM, > 10 µM, > 10 µM and > 10 µM.
Turning to `CN(C)CCNC(=O)c1ccc2cc1CN1CCC[C@H]1C(=O)NCc1cccc(c1)-c1ccnc(n1)N2` [Compound 42], the IC50 in data set [1] was 0.355 µM; in data set [2], > 10 µM; in data set [3], 1.82 µM; in data set [4] it was 1.45 µM; in data set [5] it was 1.91 µM.
